The record followed here is patent publication US9283163B2, “Collagen stimulators and their use in the treatment of skin” (Avon Products, Inc., priority 2012, dated 2016).

For the experiment, the system named is Normal Human dermal fibroblasts. The experiment in a line: Stimulation of collagen production: Procollagen Type-I C-Peptide EIA on conditioned media. Conditions: 0.0005% compound, 48 hours, p<0.05. The class given is cell-based. Here is the method:
Cell Treatment: Normal Human dermal fibroblasts were grown in DMEM (Mediatech; cat. #: 15-013-CV) containing 10% Fetal Bovine Serum (Perbio; cat. #: SH30070.03), Penicillin/Streptomycin (Mediatech, Cat #30-001-C1), L-Glutamine (Mediatech; cat. #: 25-005-CI) at 37° C. and 10% CO2. Cells were stripped of serum overnight, followed by treatment with the compound of Formula I(b) (0.0005%) or vehicle (DMSO), in the absence of serum for 48 hours.
Reading was measured at 450 nm using a spectrophotometer.
Human dermal fibroblasts treated with 0.0005% the compound of Formula I(b) for 48 hours were analyzed by ELISA for expression levels of pro-collagen. […] All values are statistically significant at p<0.05.

In the case of `COc1ccc(Cc2nc(=O)c(CCC(=O)N3CCC(C)CC3)n[nH]2)cc1OC` [Formula I(b)], the “pro-collagen, relative to control, vehicle treated cells” value (ELISA, result in words) is “significant increase”. Moreover, the Procollagen (serum-free, procollagen in conditioned media by ELISA, vehicle (DMSO) control = 100%) came out at 146%.
